Measured values as given in patent US20070219186A1, “Pyrazolo[1,5-A]pyrimidine derivatives and methods of use thereof” (priority 2006, published 2007).
pIC50: −log10 of the molar value. Where two headings read alike, the source gives them in different places.

Target: T1, human B-Raf (Homo sapiens, UniProt P15056)
T1 construct: Flag; GST; made in house; host or cells: Sf9 insect cells (B-Raf); E. coli (MEK1-GST)
Experiment: B-Raf Kinase to MEK1 ELISA
Format: biochemical
Settings: for pIC50: median, cpd concentrations from 10 μM to 30 nM in half log dilutions, read-out: Median IC50; for inhibition at 10 µM: read-out: % Inhib./10 uM
Description: TITLE: B-Raf Kinase to MEK1 ELISA
PURPOSE: To discover B-Raf Kinase inhibitors that can inhibit growth of tumor cells which contain oncogenic forms of Receptor Tyrosine Kinases or K-Ras, or B-Raf kinase.
Reagents: Flag/GST-tagged recombinant human B-Raf produced in Sf9 insect cells, human non-active Mek-1-GST (recombinant protein produced in E. coli); and a phospho-MEK1 specific poly-clonal Ab from Cell Signaling Technology (cat. #9121).
B-Raf1 Kinase Assay Procedure:
B-Raf-1 is used to phosphorylate GST-MEK1. MEK1 phosphorylation is measured by a phospho-specific antibody (from Cell Signaling Technology, cat. #9121) that detects phosphorylation of two serine residues at positions 217 and 221 on MEK1.
B-Raf Assay Stock Solutions:
1. Assay Dilution Buffer (ADB): 20 mM MOPS, pH 7.2, 25 mM β-glycerol phosphate, 5 mM EGTA, 1 mM sodium orthovanadate, 1 mM dithiothreitol.
2. Magnesium/ATP Cocktail: 200 μM cold ATP and 40 mM magnesium chloride in ADB.
3. Active Kinase: Active B-Raf: used at ˜20 ng per assay point.
4. Non-active GST-MEK1: Use at 100 nM (50 nM final).
6. Anti-GST Ab (Pharmacia)
7. Anti-rabbit Ab/Europium conjugate (Wallac)
1. Add 25 μl of ADB containing B-Raf and Mek per assay (i.e. per well of a 96 well plate)
2. Add 25 μl of 0.2 mM ATP and 40 mM magnesium chloride in ADB.
3. Incubate for 60 minutes at RT in a shaking incubator.
4. Transfer this mixture to an anti-GST Ab coated 96 well plate (Nunc Immunosorb plates coated o/n with a-GST.
5. Incubate for 60 minutes at 30° C. in a shaking incubator
6. Wash 3× with TBST, add Anti-Phospho MEK1 (1:1000)
7. Incubate for 60 minutes at 30° C. in a shaking incubator
8. Wash 3× with TBST, add Anti-rabbit Ab/Europium conjugate (Wallac) (1:500)
9. Incubate for 60 minutes at 30° C. in a shaking incubator
10. Add 100 ul of Wallac Delfia Enhancement Solution and shake for 10 minutes.
11. Read plates in Wallac Victor model Plate Reader.
12. Collect data analyze in Excel for single point and IC50 determinations.
Typically Raf-1 assay is run at cpd concentrations from 10 μM to 30 nM in half log dilutions. (% inhibition is determined for each cpd concentration)

T1 sequence (P15056 whole entry): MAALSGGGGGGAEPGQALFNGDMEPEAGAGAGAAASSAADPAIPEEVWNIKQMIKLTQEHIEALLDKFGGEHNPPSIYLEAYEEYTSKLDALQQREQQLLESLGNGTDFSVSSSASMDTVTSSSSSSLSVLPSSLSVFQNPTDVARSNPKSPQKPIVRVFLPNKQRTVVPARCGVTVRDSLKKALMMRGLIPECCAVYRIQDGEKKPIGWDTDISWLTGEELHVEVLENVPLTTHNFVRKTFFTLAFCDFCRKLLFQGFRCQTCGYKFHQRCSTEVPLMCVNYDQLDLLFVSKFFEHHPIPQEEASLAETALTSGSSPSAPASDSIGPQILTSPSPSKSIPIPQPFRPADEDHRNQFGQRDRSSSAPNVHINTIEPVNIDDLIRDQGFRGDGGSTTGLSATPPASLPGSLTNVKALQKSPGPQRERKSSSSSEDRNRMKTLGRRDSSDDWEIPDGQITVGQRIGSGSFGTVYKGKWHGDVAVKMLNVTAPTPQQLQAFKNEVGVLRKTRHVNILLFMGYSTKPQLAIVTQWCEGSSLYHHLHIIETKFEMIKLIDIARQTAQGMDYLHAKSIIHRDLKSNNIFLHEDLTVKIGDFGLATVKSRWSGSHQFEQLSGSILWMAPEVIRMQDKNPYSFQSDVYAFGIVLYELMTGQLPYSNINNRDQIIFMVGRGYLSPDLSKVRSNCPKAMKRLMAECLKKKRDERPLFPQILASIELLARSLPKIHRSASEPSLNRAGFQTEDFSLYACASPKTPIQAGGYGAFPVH

Compound	pIC50	% Inhib./10 uM (single point assay, 10 uM)	inhibition at 10 µM	inhibition at 10 µM (single point assay, 10 uM)
4-[7-(3-{[3-(trifluoromethyl)benzoyl]amino}phenyl)pyrazolo[1,5-a]pyrimidin-2-yl]benzyl acetate [Example 142]	< 5.00	48%		
CCOC(=O)c1cnn2c(-c3cccc(NC(=O)c4cccc(C(F)(F)F)c4)c3)ccnc12 [Example 1, Pyrazolo[1,5-a]pyrimidine-3-carboxylic acid, 7-[3-[[3-(trifluoromethyl)-benzoyl]amino]phenyl]-, ethyl ester]	6.14		66%	
CCOC(=O)c1cnn2c(-c3cccc(NC(=O)c4ccc(F)c(C(F)(F)F)c4)c3)ccnc12 [Example 2, ethyl 7-(3-{[4-fluoro-3-(trifluoromethyl)benzoyl]amino}phenyl)pyrazolo[1,5-a]pyrimidine-3-carboxylate]	4.77		84%	
CCOC(=O)c1cnn2c(-c3cccc(NC(=O)c4ccccc4)c3)ccnc12 [Example 3, Pyrazolo[1,5-a]pyrimidine-3-carboxylic acid, 7-[3-(benzoylamino)phenyl]-, ethyl ester]	< 4.70		4%	
CCOC(=O)c1cnn2c(-c3cccc(NC(=O)c4cccc(Br)c4)c3)ccnc12 [Example 4, ethyl 7-{3-[(3-bromobenzoyl)amino]phenyl}pyrazolo[1,5-a]pyrimidine-3-carboxylate]	< 5.00		4%	
CCOC(=O)c1cnn2c(-c3cccc(NC(=O)c4cc5ccccc5s4)c3)ccnc12 [Example 5, ethyl 7-{3-[(1-benzothien-2-ylcarbonyl)amino]phenyl}pyrazolo[1,5-a]pyrimidine-3-carboxylate]	< 4.70		24%	
CCOC(=O)c1cnn2c(-c3cccc(NC(=O)c4ccc(Cl)cc4)c3)ccnc12 [Example 6, ethyl 7-{3-[(4-chlorobenzoyl)amino]phenyl}pyrazolo[1,5-a]pyrimidine-3-carboxylate]	< 4.70		38%	
CCOC(=O)c1cnn2c(-c3cccc(NC(=O)c4cccc(OC(F)(F)F)c4)c3)ccnc12 [Example 7, ethyl 7-(3-{[3-(trifluoromethoxy)benzoyl]amino}phenyl)pyrazolo[1,5-a]pyrimidine-3-carboxylate]	5.84			67%
CCOC(=O)c1cnn2c(-c3cccc(NC(=O)c4cccc(OC)c4)c3)ccnc12 [Example 8, ethyl 7-{3-[(3-methoxybenzoyl)amino]phenyl}pyrazolo[1,5-a]pyrimidine-3-carboxylate]	< 5.00			28%
CCOC(=O)c1cnn2c(-c3cccc(NC(=O)c4ccc(C(F)(F)F)c(F)c4)c3)ccnc12 [Example 9, ethyl 7-(3-{[3-fluoro-4-(trifluoromethyl)benzoyl]amino}phenyl)pyrazolo[1,5-a]pyrimidine-3-carboxylate]	< 4.70		20%	
CCOC(=O)c1cnn2c(-c3cccc(NC(=O)c4ccc(C(F)(F)F)cc4)c3)ccnc12 [Example 10, ethyl 7-(3-{[4-(trifluoromethyl)benzoyl]amino}phenyl)pyrazolo[1,5-a]pyrimidine-3-carboxylate]	< 5.00		27%	
CCOC(=O)c1cnn2c(-c3cccc(NC(=O)Nc4ccc(Cl)c(C(F)(F)F)c4)c3)ccnc12 [Example 11, ethyl 7-{3-[({[4-chloro-3-(trifluoromethyl)phenyl]amino}carbonyl)amino]phenyl}pyrazolo[1,5-a]pyrimidine-3-carboxylate]	6.52			93%
CCOC(=O)c1cnn2c(-c3cccc(NS(=O)(=O)c4cccc(C(F)(F)F)c4)c3)ccnc12 [Example 12, ethyl 7-[3-({[3-(trifluoromethyl)phenyl]sulfonyl}amino)phenyl]pyrazolo[1,5-a]pyrimidine-3-carboxylate]	< 4.70		7%	
CCOC(=O)c1cnn2c(-c3cccc(NC(=O)c4cccc(C#N)c4)c3)ccnc12 [Example 13, ethyl 7-{3-[(3-cyanobenzoyl)amino]phenyl}pyrazolo[1,5-a]pyrimidine-3-carboxylate]	< 4.70		27%	
CCOC(=O)c1cnn2c(-c3cccc(NC(=O)Nc4ccc(Cl)cc4Cl)c3)ccnc12 [Example 14, ethyl 7-[3-({[(2,4-dichlorophenyl)amino]carbonyl}amino)phenyl]pyrazolo[1,5-a]pyrimidine-3-carboxylate]	< 5.00		0%	
CCOC(=O)c1cnn2c(-c3cccc(NC(=O)Nc4cc(C(F)(F)F)cc(C(F)(F)F)c4)c3)ccnc12 [Example 16, ethyl 7-{3-[({[3,5-bis(trifluoromethyl)phenyl]amino}carbonyl)amino]phenyl}pyrazolo[1,5-a]pyrimidine-3-carboxylate]	5.42		31%	
CCOC(=O)c1cnn2c(-c3cccc(NC(=O)Nc4cc(Cl)cc(Cl)c4)c3)ccnc12 [Example 17, ethyl 7-[3-({[(3,5-dichlorophenyl)amino]carbonyl}amino)phenyl]pyrazolo[1,5-a]pyrimidine-3-carboxylate]	< 5.00		30%	
CCOC(=O)c1cnn2c(-c3cccc(NC(=O)Nc4ccc(SC)cc4)c3)ccnc12 [Example 18, ethyl 7-{3-[({[4-(methylthio)phenyl]amino}carbonyl)amino]phenyl}pyrazolo[1,5-a]pyrimidine-3-carboxylate]	< 5.00		0%	
CCOC(=O)c1cnn2c(-c3cccc(NC(=O)Nc4ccc(C(C)=O)cc4)c3)ccnc12 [Example 19, ethyl 7-[3-({[(4-acetylphenyl)amino]carbonyl}amino)phenyl]pyrazolo[1,5-a]pyrimidine-3-carboxylate]	< 5.00		0%	
CCOC(=O)c1cnn2c(-c3cccc(NC(=O)Nc4ccc(C(C)C)cc4)c3)ccnc12 [Example 20, ethyl 7-[3-({[(4-isopropylphenyl)amino]carbonyl}amino)phenyl]pyrazolo[1,5-a]pyrimidine-3-carboxylate]	< 5.00		30%	
CCOC(=O)c1cnn2c(-c3cccc(NC(=O)Nc4ccc5ccccc5c4)c3)ccnc12 [Example 21, ethyl 7-(3-{[(2-naphthylamino)carbonyl]amino}phenyl)pyrazolo[1,5-a]pyrimidine-3-carboxylate]	5.64		58%	
CCOC(=O)c1cnn2c(-c3cccc(NC(=O)Nc4c(C)cc(C)cc4C)c3)ccnc12 [Example 22, ethyl 7-(3-{[(mesitylamino)carbonyl]amino}phenyl)pyrazolo[1,5-a]pyrimidine-3-carboxylate]	< 5.00		34%	
CCOC(=O)c1cnn2c(-c3cccc(NC(=O)Nc4ccc(OC(F)(F)F)cc4)c3)ccnc12 [Example 23, ethyl 7-{3-[({[4-(trifluoromethoxy)phenyl]amino}carbonyl)amino]phenyl}pyrazolo[1,5-a]pyrimidine-3-carboxylate]	< 5.00		20%	
CCOC(=O)c1cnn2c(-c3cccc(NC(=O)Nc4ccc(SC(F)(F)F)cc4)c3)ccnc12 [Example 24, ethyl 7-(3-{[({4-[(trifluoromethyl)thio]phenyl}amino)carbonyl]amino}phenyl)pyrazolo[1,5-a]pyrimidine-3-carboxylate]	< 5.00		11%	
CCOC(=O)c1cnn2c(-c3cccc(NC(=O)Nc4ccc(F)c(Cl)c4)c3)ccnc12 [Example 25, ethyl 7-[3-({[(3-chloro-4-fluorophenyl)amino]carbonyl}amino)phenyl]pyrazolo[1,5-a]pyrimidine-3-carboxylate]	6.22		76%	
CCOC(=O)c1cnn2c(-c3cccc(NC(=O)c4ccc(C)c(C(F)(F)F)c4)c3)ccnc12 [Example 26, ethyl 7-(3-{[4-methyl-3-(trifluoromethyl)benzoyl]amino}phenyl)pyrazolo[1,5-a]pyrimidine-3-carboxylate]	6.30			76%
CCOC(=O)c1cnn2c(-c3cccc(NC(=O)c4cc(C(F)(F)F)ccc4Cl)c3)ccnc12 [Example 27, ethyl 7-(3-{[2-chloro-5-(trifluoromethyl)benzoyl]amino}phenyl)pyrazolo[1,5-a]pyrimidine-3-carboxylate]	< 5.00		12%	
